PubChem BioAssay AID312 (DTP/NCI, 2004)
Where “and” joins values, the source holds several entries; their conditions need not be identical. Identical values can stand only once. Toxic doses and inconclusive results are not listed.

Tested on: BDF1 mice, C1498 leukemia ip, median survival T/C
Experiment: NCI In Vivo Anticancer Drug Screen. Data for tumor model C1498 Myeloid Leukemia (intraperitoneal) in B6D2F1 (BDF1) mice
Settings: endpoint: median survival time, higher = longer survival
Method: The antitumor activity of compounds was measured in mice bearing transplantable tumors. Survival or tumor size were measured and the results are expressed as the measurement made in the treated group (T) divided by the measurement made in the vehicle treated control group (C). The tumor model used in this assay is C1498 Myeloid Leukemia (intraperitoneal) in B6D2F1 (BDF1) mice

[1] = dose: 6.25 mg/kg/injection, schedule: Q01DX010 (ip), vehicle: saline
[2] = dose: 12.5 mg/kg/injection, schedule: Q01DX010 (ip), vehicle: saline
[3] = dose: 25.0 mg/kg/injection, schedule: Q01DX010 (ip), vehicle: saline
[4] = dose: 50.0 mg/kg/injection, schedule: Q01DX010 (ip), vehicle: saline
[5] = dose: 100.0 mg/kg/injection, schedule: Q01DX010 (ip), vehicle: saline
[6] = dose: 10.0 mg/kg/injection, schedule: Q01DX010 (ip), vehicle: saline
[7] = dose: 40.0 mg/kg/injection, schedule: Q01DX010 (ip), vehicle: saline
[8] = dose: 80.0 mg/kg/injection, schedule: Q01DX010 (ip), vehicle: saline
[9] = dose: 12.5 mg/kg/injection, schedule: Q01DX010 (sc), vehicle: steriod suspending solution
[10] = dose: 25.0 mg/kg/injection, schedule: Q01DX010 (sc), vehicle: steriod suspending solution
[11] = dose: 50.0 mg/kg/injection, schedule: Q01DX010 (sc), vehicle: steriod suspending solution
[12] = dose: 100.0 mg/kg/injection, schedule: Q01DX010 (sc), vehicle: steriod suspending solution
[13] = dose: 200.0 mg/kg/injection, schedule: Q01DX010 (ip), vehicle: saline
[14] = dose: 20.0 mg/kg/injection, schedule: Q01DX010 (ip), vehicle: saline
[15] = dose: 31.3 mg/kg/injection, schedule: Q01DX010 (ip), vehicle: saline
[16] = dose: 62.5 mg/kg/injection, schedule: Q01DX010 (ip), vehicle: saline
[17] = dose: 125.0 mg/kg/injection, schedule: Q01DX010 (ip), vehicle: saline
[18] = dose: 2.0 mg/kg/injection, schedule: Q01DX010 (ip), vehicle: saline
[19] = dose: 8.0 mg/kg/injection, schedule: Q01DX010 (ip), vehicle: saline
[20] = dose: 250.0 mg/kg/injection, schedule: Q01DX010 (ip), vehicle: saline
[21] = dose: 16.0 mg/kg/injection, schedule: Q01DX010 (ip), vehicle: saline

CS(=O)(=O)OCCN(CCOS(C)(=O)=O)c1ccc(N=O)cc1
T/C (dose: 0.25 mg/kg/injection, schedule: Q01DX010 (ip), vehicle: saline): 122 % of control

CS(=O)(=O)OCCC(=O)N1CCN(C(=O)CCOS(C)(=O)=O)CC1
T/C [1]: 100 % of control and 105 % of control | T/C [2]: 100 % of control and 110 % of control and 118 % of control | T/C [3]: 108 % of control and 109 % of control and 110 % of control | T/C [4]: 104 % of control and 109 % of control | T/C [5]: 109 % of control

O=c1[nH]c(=O)n(C2CC(O)C(CO)O2)cc1F (stereo not given)
T/C (dose: 5.0 mg/kg/injection, schedule: Q01DX010 (ip), vehicle: saline): 109 % of control | T/C [6]: 115 % of control and 118 % of control | T/C [7]: 154 % of control | T/C [8]: 107 % of control

Nc1nc(N)c2nc(CNc3ccc(C(=O)NC(CCC(=O)O)C(=O)O)cc3)cnc2n1 (stereo not given)
T/C (dose: 0.05 mg/kg/injection, schedule: Q01DX010 (ip), vehicle: other): 100 % of control and 103 % of control | T/C (dose: 0.1 mg/kg/injection, schedule: Q01DX010 (ip), vehicle: other): 92 % of control and 100 % of control | T/C (dose: 0.2 mg/kg/injection, schedule: Q01DX010 (ip), vehicle: other): 100 % of control | T/C (dose: 0.4 mg/kg/injection, schedule: Q01DX010 (ip), vehicle: other): 92 % of control

O=[n+]1c2c(n([O-])c3ccccc31)-c1cccc3cccc-2c13
T/C (dose: 3.13 mg/kg/injection, schedule: Q01DX010 (ip), vehicle: saline): 90 % of control | T/C [1]: 90 % of control | T/C [2]: 90 % of control | T/C [3]: 90 % of control

C[C@]12C=CC(=O)C=C1CC[C@@H]1[C@@H]2[C@@H](O)C[C@@]2(C)[C@H]1CC[C@]2(O)C(=O)CO
T/C [9]: 92 % of control | T/C [10]: 88 % of control | T/C [11]: 92 % of control | T/C [12]: 92 % of control

CS(=O)(=O)OCC(O)C(O)C(O)C(O)COS(C)(=O)=O (stereo not given)
T/C [3]: 100 % of control (2×) and 104 % of control | T/C [4]: 95 % of control and 100 % of control and 108 % of control | T/C [5]: 100 % of control (2×) and 109 % of control | T/C [13]: 104 % of control

O=c1[nH]cc(F)c(=O)[nH]1
T/C [14]: 159 % of control | T/C (dose: 25.0 mg/kg/injection, schedule: Q01DX009 (ip), vehicle: saline): 165 % of control | T/C (dose: 30.0 mg/kg/injection, schedule: Q01DX009 (ip), vehicle: saline): 165 % of control

O=c1cnn(C2OC(CO)C(O)C2O)c(=O)[nH]1 (stereo not given)
T/C [13]: 104 % of control | T/C (dose: 400.0 mg/kg/injection, schedule: Q01DX010 (ip), vehicle: saline): 100 % of control | T/C (dose: 800.0 mg/kg/injection, schedule: Q01DX010 (ip), vehicle: saline): 100 % of control

N=[N+]=CC(=O)OCC(N)C(=O)O (stereo not given)
T/C [1]: 150 % of control

C#CCN(C)Cc1ccccc1
T/C [3]: 104 % of control | T/C [4]: 100 % of control and 90 % of control | T/C [5]: 90 % of control | T/C [13]: 100 % of control and 90 % of control

CC(=O)NC1=C(N2CC2)C(=O)C(NC(C)=O)=C(N2CC2)C1=O
T/C (dose: 0.13 mg/kg/injection, schedule: Q01DX010 (ip), vehicle: saline): 108 % of control | T/C (dose: 125.0 micrograms/kg/injection, schedule: Q01DX010 (ip), vehicle: saline): 104 % of control | T/C (dose: 250.0 micrograms/kg/injection, schedule: Q01DX010 (ip), vehicle: saline): 109 % of control and 116 % of control

COc1cc(-c2ccc(Nc3ccccc3C(=O)O)c(OC)c2)ccc1Nc1ccccc1C(=O)O
T/C [3]: 112 % of control | T/C [4]: 104 % of control | T/C [5]: 100 % of control

CCCSc1ncnc2nc[nH]c12
T/C [15]: 100 % of control and 104 % of control | T/C [16]: 100 % of control and 109 % of control | T/C [17]: 104 % of control and 90 % of control

O[C@H](CN1CC1)[C@@H](O)CN1CC1
T/C (dose: 62.5 micrograms/kg/injection, schedule: Q01DX010 (ip), vehicle: saline): 123 % of control | T/C (dose: 500.0 micrograms/kg/injection, schedule: Q01DX010 (ip), vehicle: saline): 173 % of control

Nc1nc(=S)c2ncn(C3OC(CO)C(O)C3O)c2[nH]1 (stereo not given)
T/C (dose: 0.5 mg/kg/injection, schedule: Q01DX010 (ip), vehicle: saline): 113 % of control | T/C [18]: 100 % of control and 111 % of control | T/C (dose: 4.0 mg/kg/injection, schedule: Q01DX010 (ip), vehicle: saline): 100 % of control and 90 % of control | T/C [19]: 107 % of control

Nc1c(Br)cc2c(c1Br)Cc1cc([N+](=O)[O-])ccc1-2
T/C [15]: 91 % of control | T/C [16]: 91 % of control and 100 % of control | T/C [17]: 91 % of control | T/C [20]: 91 % of control and 95 % of control | T/C (dose: 500.0 mg/kg/injection, schedule: Q01DX010 (ip), vehicle: saline): 95 % of control

Nc1nc(SCc2ccccc2)c2[nH]cnc2n1
T/C [19]: 100 % of control | T/C [21]: 105 % of control | T/C (dose: 32.0 mg/kg/injection, schedule: Q01DX010 (ip), vehicle: saline): 105 % of control | T/C (dose: 64.0 mg/kg/injection, schedule: Q01DX010 (ip), vehicle: saline): 90 % of control

O=P1(N(CCCl)CCCl)NCCCO1 (stereo not given)
T/C (dose: 200.0 mg/kg/injection, schedule: Q01DX001 (ip), vehicle: saline): 162 % of control and 207 % of control | T/C (dose: 300.0 mg/kg/injection, schedule: Q01DX001 (ip), vehicle: saline): 171 % of control and 241 % of control

S=c1nc[nH]c2nc[nH]c12
T/C (dose: 1.25 mg/kg/injection, schedule: Q01DX010 (ip), vehicle: other): 104 % of control | T/C (dose: 2.5 mg/kg/injection, schedule: Q01DX010 (ip), vehicle: other): 95 % of control | T/C (dose: 5.0 mg/kg/injection, schedule: Q01DX010 (ip), vehicle: other): 109 % of control | T/C (dose: 10.0 mg/kg/injection, schedule: Q01DX010 (ip), vehicle: other): 95 % of control

CN(C)[C@@H]1C(=O)C(C(N)=O)=C(O)[C@@]2(O)C(=O)C3=C(O)c4c(O)cccc4C[C@H]3C[C@@H]12
T/C (dose: 7.5 mg/kg/injection, schedule: Q01DX010 (ip), vehicle: saline): 105 % of control and 116 % of control | T/C (dose: 15.0 mg/kg/injection, schedule: Q01DX010 (ip), vehicle: saline): 110 % of control and 112 % of control | T/C (dose: 30.0 mg/kg/injection, schedule: Q01DX010 (ip), vehicle: saline): 95 % of control | T/C (dose: 60.0 mg/kg/injection, schedule: Q01DX010 (ip), vehicle: saline): 95 % of control

COc1ccc2c(c1OC)C(=O)O[C@@H]2[C@H]1c2c(cc3c(c2OC)OCO3)CCN1C
T/C (dose: 15.6 mg/kg/injection, schedule: Q01DX010 (ip), vehicle: saline): 100 % of control | T/C [15]: 95 % of control and 100 % of control (2×) | T/C [16]: 87 % of control and 90 % of control (2×) | T/C [17]: 86 % of control and 87 % of control and 90 % of control | T/C [20]: 90 % of control

CCCCCCCCCCCCCCCC(=O)OCC1OC(n2ccc(N)nc2=O)C(O)C1O (stereo not given)
T/C (dose: 125.0 mg/kg/injection, schedule: Q01DX001 (ip), vehicle: saline with Tween-80): 153 % of control and 155 % of control | T/C (dose: 150.0 mg/kg/injection, schedule: Q01DX001 (ip), vehicle: saline with Tween-80): 151 % of control and 194 % of control

CS(=O)(=O)OCCCCOS(C)(=O)=O
T/C [1]: 95 % of control | T/C [2]: 95 % of control and 90 % of control | T/C [3]: 113 % of control | T/C [4]: 109 % of control and 119 % of control

Cn1c(N)nc2nc[nH]c2c1=S
T/C [6]: 100 % of control | T/C [14]: 104 % of control | T/C [7]: 109 % of control | T/C [8]: 109 % of control

O=C(Nc1ccc(NC2=NCCN2)cc1)c1ccc(C(=O)Nc2ccc(NC3=NCCN3)cc2)cc1
T/C [18]: 113 % of control and 123 % of control | T/C [19]: 172 % of control and 190 % of control | T/C [21]: 109 % of control and 114 % of control

CC(=O)O[C@]1(C(C)=O)CC[C@H]2[C@@H]3C[C@H](C)C4=CC(=O)C=C[C@]4(C)[C@@]3(F)[C@@H](O)C[C@@]21C
T/C [9]: 100 % of control | T/C [10]: 100 % of control | T/C [11]: 100 % of control | T/C [12]: 100 % of control

O=NN(CCCl)C(=O)NCCCl
T/C (dose: 30.0 mg/kg/injection, schedule: Q01DX001 (ip), vehicle: saline + alcohol): 420 % of control | T/C (dose: 35.0 mg/kg/injection, schedule: Q01DX001 (ip), vehicle: saline + alcohol): 247 % of control
